Patent publication US20230121313A1 (priority 2019, published 2023)
Like-named read-outs stand apart in the source and are kept apart here. Marks after values point to notes of the source that are not given here.

Experiments:
[1] = for QC sample long-term storage stability: human plasma QC sample at −20° C.; for QC sample bench-top stability: human plasma QC sample; for QC sample bench-top stability / Processed sample stability: room temperature; for Stock solution stability (spike solutions): ketamine/norketamine spike solutions at −20° C.; for Whole Blood Stability: room temperature and in an ice-water bath (0-4° C.)
Experimental: This example provides an LC-MS/MS method for the determination of ketamine and norketamine in sodium heparin human plasma using ketamine-d4 and norketamine-d4 as the respective internal standards (IS).
Retention time and peak area were determined by Analyst® Data Acquisition/Processing Software (Version 1.4.2). Analyte concentrations were obtained from a calibration curve constructed by plotting the peak area ratio versus the concentration using Watson LIMS (Version 7.3). Watson LIMS and Microsoft Office Excel were used for statistical calculations. When Office Excel was used the calculations were 100% audited. Concentrations were calculated using linear regression according to the following equation: […]
Selectivity is defined as the ability of a chromatographic method to measure a response from the analyte without interference from the biological matrix. This was accomplished by evaluating six individual lots of human plasma prepared as blank and at the lower limit of quantitation (LLOQ, 0.500 ng/mL).
The matrix effect is defined as the suppression or enhancement of ionization of analytes by the presence of matrix components in the biological samples. See, e.g., C. T. Viswanathan, “Quantitative Bioanalytical Methods Validation and Implementation: Best Practices for Chromatographic and Ligand Binding Assays,” Pharmaceutical Research, Vol. 24, No. 10, October 2007, p. 1969. The matrix effect was evaluated by extracting single replicates of six lots of blank human plasma and spiking each lot at the Low and High QC concentration levels (1.50 ng/mL and 375 ng/mL) post extraction. The area ratios of the six lots of post-extraction spiked plasma samples were compared to the mean area ratio obtained from three replicates of the neat solution prepared at the same concentration level in purified water.
The linearity of the method was evaluated at a linear range of 0.500/0.500-500/500 ng/mL for ketamine/norketamine in human plasma. Linear regression (with a weighting factor of 1/x2) was used to produce the best fit for the concentration-detector response relationship for ketamine and norketamine in human plasma.
The validation was conducted with a target LLOQ of 0.500 ng/mL for ketamine and norketamine in human plasma. To evaluate the sensitivity, six QC samples prepared at the LLOQ were analyzed during three individual batch runs as part of the intra-run and inter-run accuracy and precision for the method. The concentrations were calculated with the calibration curve.
The intra-run and inter-run accuracy and precision of the method were investigated at four different QC concentration levels (0.500 ng/mL (LLOQ), 1.50 ng/mL, 80.0 ng/mL, and 375 ng/mL).
Recoveries were calculated according to the following formula: […]
To assess the reinjection reproducibility, an analyte batch containing a standard curve and QC samples was reinjected after being kept at room temperature for 161.5 hours.

[2] = tested on: PCG/RSC of adult female Sprague Dawley rats; conditions: 3 hours after a single intraperitoneal injection (Jevtovic-Todorovic 2000); cited from earlier work
[3] = tested on: subjects with MDD at imminent risk for suicide; conditions: double-blind phase; all randomized analysis set; N=36
From the text: Among 68 randomized subjects, 66 were included in the safety analysis set (defined as receiving at least one dose of study medication in the double-blind phase). […] All safety subjects (N=66) were included in the intent-to-treat (ITT) analysis set (defined as receiving at least one dose of study medication during the double-blind phase and having both the baseline and the Day 1, 4-hour postdose evaluation for the MADRS total score). Forty-nine subjects were included in the safety (FU) analysis set (defined as all subjects who have at least 1 visit during the follow up phase).

[4] = Pharmacokinetics of intranasal esketamine 28, 56, 84 mg in healthy subjects (Example 9); conditions: for AUClast / AUC∞ / Cmax / t1/2 / Metabolite/Parent Ratio AUClast / Metabolite/Parent Ratio AUC∞ / Metabolite/Parent Ratio Cmax: mean; for Tmax: median; for Metabolite/Parent Ratio AUClast / Metabolite/Parent Ratio AUC∞ / Metabolite/Parent Ratio Cmax: noresketamine to esketamine
Experimental: This was an open-label, single-center study. The subjects were healthy Caucasian men and women, 20 to 55 years of age, inclusive. […] The solution consisted of:
Pharmacokinetic blood samples for measurement of esketamine and noresketamine concentrations in plasma were collected from predose until up to 24 hours after each intranasal esketamine regimen on Day 1 of each period.
Blood samples (4 mL each) for determination of esketamine and noresketamine plasma concentrations were collected into the appropriate collection tube (e.g., Vacutainer®) at timepoints 0.00, 0.12, 0.20, 0.37, 0.53, 0.67, 0.83, 1.00, 1.25, 1.50, 2.00, 3.00, 4.00, 6.00, 9.00, 12.00, 18.00, and 24.00 h. The total amount of blood to be drawn for clinical laboratory tests and PK evaluations is approximately 327 mL.
Plasma samples were analyzed for esketamine and noresketamine concentrations using the validated, specific and sensitive liquid chromatography coupled to tandem mass spectrometry (LC-MS/MS) achiral method of Example 8.
Serial PK blood samples (4 mL each) were collected for a 24-hour period from each subject (Periods 1, 2, and 3).
The following key parameters of esketamine and noresketamine in plasma were calculated using noncompartmental methods and actual sampling times: Cmax, tmax, AUClast, AUC∞, t1/2,λ, and λz.

MDD/TRD subjects = conditions: 52-week safety study in MDD/TRD subjects (Berman et al., 2011); cited from earlier work
[5] = freeze (−20° C.)/thaw (ice-water bath)
[6] = freeze (−20° C.)/thaw (room temperature)
[7] = stock solutions at room temperature under white light
[8] = noresketamine in plasma after intranasal esketamine 28 mg (Treatment A)
[9] = noresketamine in plasma after intranasal esketamine 56 mg (Treatment B)
[10] = noresketamine in plasma after intranasal esketamine 84 mg (Treatment C)

CNC1(c2ccccc2Cl)CCCCC1=O (racemic) [ketamine, reference compound]
QC sample freeze/thaw stability [1, 5]: 3 freeze (−20° C.)/thaw (ice-water bath) cycles | QC sample freeze/thaw stability [1, 6]: 3 freeze (−20° C.)/thaw (room temperature) cycles | QC sample long-term storage stability [1]: 1552 days at −20 °C | QC sample bench-top stability [1]: 68.5 hours at room temp | Stock solution stability (spike solutions) [1]: 610 days at −20 °C for ketamine/norketamine spike solutions | Processed sample stability [1]: 146.5 hours at room temperature | Whole Blood Stability [1]: 120 minutes at room temperature and in an ice-water bath (0-4° C.) | Stock solution stability [1, 7]: 6 h | Stock solution stability ([1]; stock solutions at −20° C.): 15100 h | ED50-value for the induction of neuronal vacuolation in the PCG/RSC [2]: 47.5 mg/kg body weight

CN[C@]1(c2ccccc2Cl)CCCCC1=O [Esketamine 84 mg]
Withdrawn: Adverse event, % of subjects [3]: (13.9%) | Withdrawn: Adverse event, number of subjects [3]: 5 | Withdrawn: Lack of Efficacy, % of subjects [3]: (2.8%) | Withdrawn: Lack of Efficacy, number of subjects [3]: 1

NC1(c2ccccc2Cl)CCCCC1=O (stereo not shown) [Norketamine]
QC sample freeze/thaw stability [1, 5]: 3 freeze (−20° C.)/thaw (ice-water bath) cycles | QC sample freeze/thaw stability [1, 6]: 3 freeze (−20° C.)/thaw (room temperature) cycles | QC sample long-term storage stability [1]: 1552 days at −20 °C | QC sample bench-top stability [1]: 68.5 hours at room temp | Stock solution stability (spike solutions) [1]: 610 days at −20 °C for ketamine/norketamine spike solutions | Processed sample stability [1]: 146.5 hours at room temperature | Whole Blood Stability [1]: 120 minutes at room temperature and in an ice-water bath (0-4° C.) | Stock solution stability [1, 7]: 6 h | Stock solution stability ([1]; stock solutions at −20° C.): 15100 h

NC1(c2ccccc2Cl)CCCCC1=O (stereo not shown) [noresketamine]
Mean ratio of noresketamine to esketamine, AUClast ([4]; 28, 56, 84 mg): 3.62 to 4.32 | Mean ratio of noresketamine to esketamine, AUC∞ ([4]; 28, 56, 84 mg): 3.80 to 4.46 | Mean ratio of noresketamine to esketamine, Cmax ([4]; 28, 56, 84 mg): 1.96 to 2.55 | Median tmax of noresketamine, range across regimens ([4]; healthy subjects, intranasal esketamine 28, 56, 84 mg): 1.25 to 1.5 h | AUC (AUClast and AUC∞) variability ([4]; noresketamine in plasma): 17.0% to 21.3 | Between-subject variability for Cmax ([4]; noresketamine in plasma): 25.8% to 33.7 | AUClast [4, 8]: 454 ng·h/mL | AUC∞ [4, 8]: 508 ng·h/mL | Cmax [4, 8]: 92.8 ng/mL | t1/2 [4, 8]: 7.74 h | Tmax [4, 8]: 1.25 h | AUClast [4, 9]: 851 ng·h/mL | AUC∞ [4, 9]: 924^c h*ng/mL | Cmax [4, 9]: 154 ng/mL | t1/2 [4, 9]: 7.71^c h | Tmax [4, 9]: 1.50 h | AUClast [4, 10]: 1287 ng·h/mL | AUC∞ [4, 10]: 1392^b h*ng/mL | Cmax [4, 10]: 241 ng/mL | t1/2 [4, 10]: 7.48^b h | Tmax [4, 10]: 1.50 h | Metabolite/Parent Ratio AUClast ([4]; esketamine 28 mg (Treatment A)): 3.62 | Metabolite/Parent Ratio AUC∞ ([4]; esketamine 28 mg (Treatment A)): 3.80^b | Metabolite/Parent Ratio Cmax ([4]; esketamine 28 mg (Treatment A)): 1.96 | Metabolite/Parent Ratio AUClast ([4]; esketamine 56 mg (Treatment B)): 4.07 | Metabolite/Parent Ratio AUC∞ ([4]; esketamine 56 mg (Treatment B)): 4.22^b | Metabolite/Parent Ratio Cmax ([4]; esketamine 56 mg (Treatment B)): 2.28 | Metabolite/Parent Ratio AUClast ([4]; esketamine 84 mg (Treatment C)): 4.32 | Metabolite/Parent Ratio AUC∞ ([4]; esketamine 84 mg (Treatment C)): 4.46^d | Metabolite/Parent Ratio Cmax ([4]; esketamine 84 mg (Treatment C)): 2.55 | Mean t1/2, range across regimens ([4]; noresketamine, esketamine 28, 56, 84 mg): 7.48 to 7.74 h

OCCOCCN1CCN(C2=Nc3ccccc3Sc3ccccc32)CC1 [quetiapine]
Rate of discontinuation due to adverse events (MDD/TRD subjects): 23.7%
